The values below come from patent US9969752B2, “Inhibitors of HIF prolyl hydroxylase” (MERCK SHARP & DOHME CORP., priority 2014, dated 2018).

Molecules are shown by their SMILES.

T1 sequence (Q9GZT9 whole entry): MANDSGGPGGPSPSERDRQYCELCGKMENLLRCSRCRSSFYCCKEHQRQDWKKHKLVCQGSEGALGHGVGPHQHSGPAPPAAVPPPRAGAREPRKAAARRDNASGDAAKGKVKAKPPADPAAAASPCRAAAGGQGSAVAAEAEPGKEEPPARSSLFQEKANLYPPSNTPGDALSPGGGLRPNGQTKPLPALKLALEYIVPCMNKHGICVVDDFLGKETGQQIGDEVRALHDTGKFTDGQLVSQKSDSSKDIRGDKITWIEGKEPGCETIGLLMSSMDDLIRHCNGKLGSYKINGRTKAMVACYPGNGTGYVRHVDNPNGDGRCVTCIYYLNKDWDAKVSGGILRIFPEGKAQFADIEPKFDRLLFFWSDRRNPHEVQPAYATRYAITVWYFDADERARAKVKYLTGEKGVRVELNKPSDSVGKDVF

This assay has as its target T1, Human HIF-PHD2 (Homo sapiens, UniProt Q9GZT9).
T1 construct: FLAG-tagged full length PHD2 expressed in and purified from baculovirus-infected Sf9 cells; FLAG; made in house; host or cells: baculovirus-infected Sf9 cells
Kind of assay: Inhibition of the hydroxylation of a HIF peptide by PHD2 (time resolved fluorescence, 384-well). The following applies: FLAG-tagged full length PHD2; 0.2 μM 2-oxoglutarate, 0.5 μM HIF-1α peptide; 45 minutes at room temperature; read-out: Human HIF-PHD2 IC50. Type of assay: biochemical.
As to `CN1c2cc(C#N)cc3c(O)c(C(=O)NCC(=O)O)c(=O)n(c23)CC1c1ccc(C(F)(F)F)cc1` (stereo not drawn) [Example 96, 2-(9-Cyano-7-hydroxy-1-methyl-5-oxo-2-(4-(trifluoromethyl)phenyl)-1,2,3,5-tetrahydropyrido[1,2,3-de]quinoxaline-6-carboxamido)acetic acid], the IC50 was 3 nM.
The same measure for `N#Cc1ccc2c3c1c(O)c(C(=O)NCC(=O)O)c(=O)n3CC(c1ccc(C(F)(F)F)cc1)S2` (stereo not drawn) [Example 97, 2-(8-Cyano-7-hydroxy-5-oxo-2-(4-(trifluoromethyl)phenyl)-3,5-dihydro-2H-[1,4]thiazino[2,3,4-ij]quinoline-6-carboxamido)acetic acid]: 1.5 nM; for `O=C(O)CNC(=O)c1c(O)c2c(F)ccc3c2n(c1=O)C(c1ccc(C(F)(F)F)cc1)CS3` (stereo not drawn) [Example 98, 2-(8-Fluoro-7-hydroxy-5-oxo-3-(4-(trifluoromethyl)phenyl)-3,5-dihydro-2H-[1,4]thiazino[2,3,4-ij]quinoline-6-carboxamido)acetic acid]: 13.7 nM; for `N#Cc1ccc2c3c1c(O)c(C(=O)NCC(=O)O)c(=O)n3C(c1ccc(C(F)(F)F)cc1)CS2` (stereo not drawn) [Example 99, 2-(8-Cyano-7-hydroxy-5-oxo-3-(4-(trifluoromethyl)phenyl)-3,5-dihydro-2H-[1,4]thiazino[2,3,4-ij]quinoline-6-carboxamido)acetic acid]: 5.1 nM.
As for `O=C(O)CNC(=O)c1c(O)c2cccc3c2n(c1=O)C(c1ccc(C(F)(F)F)cc1)CS3` (stereo not drawn) [Example 100, 2-(7-Hydroxy-5-oxo-3-(4-(trifluoromethyl)phenyl)-3,5-dihydro-2H-[1,4]thiazino[2,3,4-ij]quinoline-6-carboxamido)acetic acid], the IC50 stood at 32 nM.
Take `O=C(O)CNC(=O)c1c(O)c2cccc3c2n(c1=O)C(c1ccc(C(F)(F)F)cc1)CS3(=O)=O` (stereo not drawn) [Example 101, 2-(7-hydroxy-1,1-dioxido-5-oxo-3-(4-(trifluoromethyl)phenyl)-3,5-dihydro-2H-[1,4]thiazino[2,3,4-ij]quinoline-6-carboxamido)acetic acid]: the IC50 worked out at 8.6 nM.
The result for `N#Cc1cc2c3c(c1)c(O)c(C(=O)NCC(=O)O)c(=O)n3C(c1ccc(C(F)(F)F)cc1)CS2` (stereo not drawn) [Example 102, 2-(9-Cyano-7-hydroxy-5-oxo-3-(4-(trifluoromethyl)phenyl)-3,5-dihydro-2H-[1,4]thiazino[2,3,4-ij]quinoline-6-carboxamido)acetic acid] reads 5.8 nM; that for `O=C(O)CNC(=O)c1c(O)c2cccc3c2n(c1=O)CC(c1ccc(C(F)(F)F)nc1)S3` (stereo not drawn) [Example 103, 2-(7-Hydroxy-5-oxo-2-(6-(trifluoromethyl)pyridin-3-yl)-3,5-dihydro-2H-[1,4]thiazino[2,3,4-ij]quinoline-6-carboxamido)acetic acid], 3.4 nM; that for `O=C(O)CNC(=O)c1c(O)c2cccc3c2n(c1=O)CC(c1ccc(C(F)(F)F)nc1)S3(=O)=O` (stereo not drawn) [Example 104, 2-(7-Hydroxy-1,1-dioxido-5-oxo-2-(6-(trifluoromethyl)pyridin-3-yl)-3,5-dihydro-2H-[1,4]thiazino[2,3,4-ij]quinoline-6-carboxamido)acetic acid], 6.3 nM.
The same measure for `O=C(O)CNC(=O)c1c(O)c2cccc3c2n(c1=O)C(c1cncs1)CS3` (stereo not drawn) [Example 105, 2-(7-Hydroxy-5-oxo-3-(thiazol-5-yl)-3,5-dihydro-2H-[1,4]thiazino[2,3,4-ij]quinoline-6-carboxamido)acetic acid]: 5.1 nM; for `O=C(O)CNC(=O)c1c(O)c2cccc3c2n(c1=O)C(c1ccc(C(F)(F)F)cc1)CN3` (stereo not drawn) [Example 106, 2-(7-Hydroxy-5-oxo-3-(4-(trifluoromethyl)phenyl)-1,2,3,5-tetrahydropyrido[1,2,3-de]quinoxaline-6-carboxamido)acetic acid]: 27 nM.
In the case of `CN1CC(c2ccc(C(F)(F)F)cc2)n2c(=O)c(C(=O)NCC(=O)O)c(O)c3cccc1c32` (stereo not drawn) [Example 107, 2-(7-Hydroxy-1-methyl-5-oxo-3-(4-(trifluoromethyl)phenyl)-1,2,3,5-tetrahydropyrido[1,2,3-de]quinoxaline-6-carboxamido)acetic acid], the IC50 was found to be 68 nM.
For the molecule `O=C(O)CNC(=O)c1c(O)c2cccc3c2n(c1=O)CC(c1ccc(C(F)(F)F)cc1)N3` (stereo not drawn) [Example 108, 2-(7-Hydroxy-5-oxo-2-(4-(trifluoromethyl)phenyl)-1,2,3,5-tetrahydropyrido[1,2,3-de]quinoxaline-6-carboxamido)acetic acid], the IC50 worked out at 6.5 nM.
For `N#Cc1ccc2c(O)c(C(=O)NCC(=O)O)c(=O)n3c2c1NC(c1cncs1)C3` (stereo not drawn) [Example 109, 2-(10-Cyano-7-hydroxy-5-oxo-2-(thiazol-5-yl)-1,2,3,5-tetrahydropyrido[1,2,3-de]quinoxaline-6-carboxamido)acetic acid], the IC50 amounted to 4.2 nM.
As to `O=C(O)CNC(=O)c1c(O)c2cccc3c2n(c1=O)CC(c1cncs1)N3` (stereo not drawn) [Example 110, 2-(7-Hydroxy-5-oxo-2-(thiazol-5-yl)-1,2,3,5-tetrahydropyrido[1,2,3-de]quinoxaline-6-carboxamido)acetic acid], the IC50 stood at 12 nM.
On to `O=C(O)CNC(=O)c1c(O)c2cccc3c2n(c1=O)C(c1cncs1)CN3` (stereo not drawn) [Example 111, 2-(7-Hydroxy-5-oxo-3-(thiazol-5-yl)-1,2,3,5-tetrahydropyrido[1,2,3-de]quinoxaline-6-carboxamido)acetic acid], for which the IC50 was 15 nM.
The result for `CN1c2cccc3c(O)c(C(=O)NCC(=O)O)c(=O)n(c23)CC1c1cncs1` (stereo not drawn) [Example 112, 2-(7-Hydroxy-1-methyl-5-oxo-2-(thiazol-5-yl)-1,2,3,5-tetrahydropyrido[1,2,3-de]quinoxaline-6-carboxamido)acetic acid] reads 29 nM.
Regarding `CN1CC(c2cncs2)n2c(=O)c(C(=O)NCC(=O)O)c(O)c3cccc1c32` (stereo not drawn) [Example 113, 2-(7-Hydroxy-1-methyl-5-oxo-3-(thiazol-5-yl)-1,2,3,5-tetrahydropyrido[1,2,3-de]quinoxaline-6-carboxamido)acetic acid], the IC50 turned out to be 125 nM.
The result for `N#Cc1ccc2c(O)c(C(=O)NCC(=O)O)c(=O)n3c2c1NC(c1ccc(C(F)(F)F)cc1)C3` (stereo not drawn) [Example 114, 2-(10-Cyano-7-hydroxy-5-oxo-2-(4-(trifluoromethyl)phenyl)-1,2,3,5-tetrahydropyrido[1,2,3-de]quinoxaline-6-carboxamido)acetic acid] reads 1 nM.
As to `O=C(O)CNC(=O)c1c(O)c2ccc(F)c3c2n(c1=O)C(c1ccc(C(F)(F)F)cc1)CN3` (stereo not drawn) [Example 115, 2-(10-Fluoro-7-hydroxy-5-oxo-3-(4-(trifluoromethyl)phenyl)-1,2,3,5-tetrahydropyrido[1,2,3-de]quinoxaline-6-carboxamido)acetic acid], the IC50 turned out to be 13 nM.
As to `O=C(O)CNC(=O)c1c(O)c2ccc(F)c3c2n(c1=O)CC(c1ccc(C(F)(F)F)cc1)N3` (stereo not drawn) [Example 116, 2-(10-Fluoro-7-hydroxy-5-oxo-2-(4-(trifluoromethyl)phenyl)-1,2,3,5-tetrahydropyrido[1,2,3-de]quinoxaline-6-carboxamido)acetic acid], the IC50 stood at 8.8 nM.
